Data published in publication PMC7594877, “Multidirectional in vitro and in cellulo studies as a tool for identification of multi-target-directed ligands aiming at symptoms and causes of Alzheimer’s disease” (Journal of Enzyme Inhibition and Medicinal Chemistry, 2020).
Several values for one entry are separate records, joined by “and”; a condition that tells them apart may be missing. Equal entries are not always repeated. Where two headings read alike, the source gives them in different places. Marks after values point to notes of the source that are not given here.

Columns and labels:
tau [1] = molecular target: T1, tau (Homo sapiens, UniProt P10636); test: In cellulo tau aggregation inhibition, Thioflavin S fluorescence in E. coli overexpressing tau; assay type: cell-based, Escherichia coli; settings: at 10 µM; mean of three experiments ± SEM
T1 construct: expressed in transfected cells; host or cells: E. coli BL21 (DE3) with pTARA (T7 RNA polymerase under pBAD) and pRKT42
Description: (§1) We screened multifunctional ligands from our in-house library for their anti-aggregating activity against Aβ and tau in the whole bacterial cells using the Thioflavin S (ThS) fluorescence assay. Bacterial cells overexpressing different proteins provide simple models that can be easily employed to monitor the mechanisms of protein aggregation related to a variety of conformational diseases[36]^,[37]. In our assay, E. coli system has been implemented to study the effect of potential Aβ42 and tau aggregation inhibitors within intact cells. The advantage of the test over in vitro tests is the fact that it considers the complexity of the cellular environment that plays a crucial role in tuning protein aggregation. This assay has been validated and successfully applied to assess the anti-aggregating properties of diverse chemical structures. Previously investigated tetrahydrobenzo[h][1,6] naphthyridine-6-chlorotacrine hybrid DP-128 was used as a reference compound[38]^,[39].
(§2) The assays were conducted according to the procedure described previously. All general chemicals were purchased from Sigma-Aldrich (St. Louis, MO) . Reagents for bacterial media were purchased from Conda (Sevilla, Spain). M9 minimal medium for 100 mL: 10 mL of salts 10× (0.68 g of Na2HPO4, 0.30 g of KH2PO4, 0.05 g of NaCl, 0.10 g of NH4Cl), 0.2 mL of 1 M MgSO4, 0.2 mL of 50 mM CaCl2, 2.5 mL of 20% glucose, and 87.1 mL of H2O.
(§3) E. coli competent cells BL21 (DE3) were transformed with the pET28a vector (Novagen, Inc., Madison, WI) carrying the DNA sequence of Aβ42 or with pTARA containing the RNA polymerase gene of T7 phage (T7RP) under the control of the promoter pBAD, then with pRKT42 vector encoding four repeats of tau protein in two inserts. For overnight culture preparation, 10 ml of M9 minimal medium containing 50 μg/mL of kanamycin (Aβ42) or 50 μg/mL of ampicillin and 12.5 μg/mL of chloramphenicol (tau) were inoculated with a colony of BL21 (DE3) bearing the plasmid Aβ42 or tau plasmids to be expressed at 37 °C and 180 rpm using an incubator shaker (Ovan, Barcelona, Spain). After overnight growth, the OD600 was usually 2 − 2.5. For expression of Aβ42 peptide/tau protein, 200 μL of overnight culture were transferred into Eppendorf tubes of 1.5 mL containing 790 μL of fresh M9 minimal medium with 50 μg/mL of kanamycin1 mM of isopropyl 1-thio-β-D-galactopyranoside (IPTG) (Aβ42) or 50 μg/mL of ampicillin, 12.5 μg/mL of chloramphenicol, 0.25% of arabinose (tau), and 25 μM of ThS and 10 μL of reference, tested compounds (1 mM in DMSO, final concentration: 10 μM) or DMSO. The samples were grown for 24 h at 37 °C and 180 rpm using an incubator shaker (Ovan). The samples with DMSO were prepared as a negative control (maximum level of Aβ42/tau, 0% of inhibition). In the positive controls, the M9 medium without IPTG (minimal level of Aβ42) or arabinose (minimal level of tau) was used. For absorbance and fluorescence determination, 200 μL of each Eppendorf tube was transferred in triplicate into 96-well plate. Finally, the fluorescence emission at 520 nm, when exciting at 440 nm and absorbance at 600 nm was recorded using the multi-mode microplate reader (Beckman Counter, Brea, CA). The absorbance at 600 nm (OD600) of these samples was assessed to check the bacterial growth and potential intrinsic toxicity of the tested compounds. Final data are the average of three independent experiments. DP-128 was used as a reference compound[38].

Aβ42 [2] = molecular target: T2, Aβ42 (Homo sapiens, UniProt P05067); test: In cellulo Aβ42 aggregation inhibition, Thioflavin S fluorescence in E. coli overexpressing Aβ42; assay type: cell-based, Escherichia coli; settings: at 10 µM; mean of three experiments ± SEM
T2 construct: expressed in transfected cells; host or cells: E. coli BL21 (DE3) with pET28a-Aβ42, IPTG-induced
Description: as §1, §2, §3

human BACE1 = molecular target: T3, human BACE1 (Homo sapiens, UniProt P56817); test: In vitro inhibition of human BACE1, FRET assay; assay type: biochemical; settings: mean of three experiments ± SEM; read-out: hBACE1 IC50
T3 construct: purchased Panvera, Madison, WI (BACE1 FRET Assay Kit); host or cells: baculovirus-expressed
Description: To further explore the multifunctional profile of the ligands, we screened them for their inhibitory activity against human BACE1 using spectrofluorometric assay (fluorescence resonance energy transfer (FRET)-based). […] Therefore, BACE1 inhibitors are now being tested in earlier stages of AD and in asymptomatic subjects at risk of AD, with the hope of blocking the disease process before it becomes irreversible.
BACE1 FRET Assay Kit (Panvera, Madison, WI) was performed according to the manufacturer’s protocol with small modifications. The Kit includes purified baculovirus-expressed BACE1 and specific peptide substrate (Rh-[…]-quencher), based on the “Swedish” mutant of APP. The analysis was carried, using 384-well black microplates and a microplate reader (EnSpire Multimode; PerkinElmer, Waltham, MA). The wavelength was optimised for the 553 nm excitation and 576 nm emission. Stock solutions of all test compounds were prepared in DMSO and further diluted with assay buffer (50 mM sodium acetate; pH 4.5). In the first step, 10 μL of BACE1 substrate was mixed with 10 μL of test compound (or assay buffer; i.e. blank sample), then 10 μL of the enzyme (1 U/mL) was added to start the reaction. After 60 min of incubation at 25 °C, 10 μL of stop solution (2.5 M sodium acetate) was applied to stop the reaction. The fluorescence signal was read at 576 nm. Percent of inhibition was calculated from [1 − (S60 − S0)/(C60 − C0)] × 100, where S0 and S60 are fluorescence intensities of the test sample (enzyme, substrate, test compound) at the beginning of the reaction and after 60 min, respectively, while C0 and C60 are analogical fluorescence intensities of the blank sample (enzyme, substrate, buffer). […] Each compound was analysed in triplicate. Commercially available BACE1 Inhibitor IV (Calbiochem, Merck; Nottingham, UK) was used as the reference compound. The IC50 values were calculated using nonlinear regression (GraphPad Prism 5 [GraphPad Software, San Diego, CA, 5.00]) by plotting the residual enzyme activities against the applied inhibitor concentration.

HepG2 cells = test: Cytotoxicity, MTS cell viability assay, HepG2; assay type: cell-based, human; settings: 24 h, read-out: LC50 (cell viability, MTS)
Description: (§4) The human liver carcinoma HepG2 cell line was purchased from American Type Culture Collection (LGC Standards, UK). The human neuroblastoma SH-SY5Y cell line was purchased from American Type Culture Collection (CRL-2266, Manassas, VA). The cells were grown in Advanced Dulbecco’s modified Eagle’s medium (Sigma, St. Louis, MO) supplemented with 10% foetal bovine serum (FBS) (HyClone, Logan, UT), 2 mM L-glutamine, 50 U/mL penicillin and 50 μg/mL streptomycin (Sigma, St. Louis, MO) in a humidified atmosphere of 95% air and 5% CO2 at 37 °C, and grown to 80% confluence. Compound 3 was prepared as a stock solution of 20 mM in DMSO and was used at concentrations of 1–100 µM in case of HepG2 treatment, and at concentrations of 0.25–5 µM in case of SH-SY5Y treatment.
(§5) HepG2 and SH-SY5Y cells were seeded in 96-well plates (2 × 10^4/well) and assessed by MTS ([3–(4,5-dimethylthiazol-2-yl)-5–(3-carboxymethoxyphenyl)-2–(4-sulfophenyl)-2H-tetrazolium, inner salt) assay for their response to compound 3. Cells were treated as described above, and cell viability was assessed after 24 h using the CellTiter 96® Aqueous One Solution Cell Proliferation Assay (Promega, Madison, WI), following the manufacturer’s instructions. Absorbance was measured with an automatic microplate reader (Tecan Safire, Switzerland) at a wavelength of 492 nm.

SH-SY5Y cells = test: Cytotoxicity, MTS cell viability assay, SH-SY5Y; assay type: cell-based, human; settings: 24 h, read-out: LC50 (cell viability, MTS)
Description: as §4, §5

h5-HT6 = molecular target: h5-HT6; set-up: method as in PMID 27560283, PMID 29384656; settings: read-out: 5-HT6 Ki; cited from earlier work
hAChE = settings: read-out: hAChE IC50; cited from earlier work
eqBuChE = settings: read-out: eqBuChE IC50; cited from earlier work
tau [3] = molecular target: T1, tau; set-up: method as in di Pietro et al. 38; settings: at 10 µM; ref di Pietro et al. 38; cited from earlier work
Aβ42 [4] = molecular target: T2, Aβ42; set-up: method as in di Pietro et al. 38; settings: at 10 µM; ref di Pietro et al. 38; cited from earlier work

T1 sequence (P10636 other isoform, or with tags, fused parts or gaps): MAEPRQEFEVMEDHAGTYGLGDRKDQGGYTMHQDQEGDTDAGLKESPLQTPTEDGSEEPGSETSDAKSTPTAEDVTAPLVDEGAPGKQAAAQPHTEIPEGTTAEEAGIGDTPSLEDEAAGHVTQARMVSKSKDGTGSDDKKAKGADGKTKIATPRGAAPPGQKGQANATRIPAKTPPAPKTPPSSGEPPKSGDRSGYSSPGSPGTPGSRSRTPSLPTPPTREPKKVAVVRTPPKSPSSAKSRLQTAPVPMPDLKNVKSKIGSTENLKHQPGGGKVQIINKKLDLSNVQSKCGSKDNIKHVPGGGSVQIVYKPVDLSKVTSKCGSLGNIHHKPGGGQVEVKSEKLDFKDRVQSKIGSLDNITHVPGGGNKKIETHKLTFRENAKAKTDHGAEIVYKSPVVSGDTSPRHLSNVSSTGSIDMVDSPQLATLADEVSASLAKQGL
T2 sequence (P05067 672-713): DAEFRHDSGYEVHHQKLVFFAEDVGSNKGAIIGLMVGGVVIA
T3 sequence (P56817 46-501): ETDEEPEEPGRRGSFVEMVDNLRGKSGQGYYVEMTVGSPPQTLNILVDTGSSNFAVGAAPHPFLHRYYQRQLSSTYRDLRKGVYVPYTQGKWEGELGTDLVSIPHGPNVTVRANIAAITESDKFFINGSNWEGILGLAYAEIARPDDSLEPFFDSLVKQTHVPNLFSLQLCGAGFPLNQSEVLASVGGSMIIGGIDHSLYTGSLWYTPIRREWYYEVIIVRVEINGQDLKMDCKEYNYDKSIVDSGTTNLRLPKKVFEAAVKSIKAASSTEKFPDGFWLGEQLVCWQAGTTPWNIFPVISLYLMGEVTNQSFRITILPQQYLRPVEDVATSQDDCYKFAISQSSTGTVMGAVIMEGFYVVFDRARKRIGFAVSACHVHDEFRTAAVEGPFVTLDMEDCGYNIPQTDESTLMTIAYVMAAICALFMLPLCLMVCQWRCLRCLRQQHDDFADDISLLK

Structure (SMILES) | In cellulo tau inhibition % (tau [1]) | In cellulo Aβ42 inhibition % (Aβ42 [2]) | IC50 (human BACE1) | CC50 (HepG2 cells) [nM] | CC50 (SH-SY5Y cells) [nM] | Ki (h5-HT6) [nM] | IC50 (hAChE) [nM] | IC50 (eqBuChE) [nM] | In cellulo tau inhibition % (tau [3]) | In cellulo Aβ42 inhibition % (Aβ42 [4])
O=S(=O)(c1ccccc1)n1ccc2c(N3CCN(CCCCCCNc4c5c(nc6ccccc46)CCCC5)CC3)cccc21 [Compound 3] | 38% and 37.6 ± 2.4% | 30% and 29.7 ± 4.0% | 7300 nM and 7310 nM | 6400 | 1000 | 2 | 13 | 8 |  | 
O=C(NCCCCCCCCNc1c2c(nc3cc(Cl)ccc13)CCCC2)c1ccc2nc(-c3ccc(Cl)cc3)c3c(c2c1)NCCC3 [DP-128] |  |  |  |  |  |  |  |  | 68.7 ± 0.5^d % | 77.5 ± 0.9^d %
